Results published in patent US20240116985A1, “STAPLED PEPTIDES AND METHODS THEREOF” (priority 2020, published 2024).
Converted amounts (≈) assume the structure as drawn. Where two headings read alike, the source gives them in different places.

Tests used:
Solubility in PBS = type: physicochemical
In short: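 The PBS solution was ultracentrifuged and the supernatant analyzed by HPLC. Its peak area was divided by that of a 50 μM peptide DMSO reference injection and multiplied by 50 uM to give solubility.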

CHI Log D procedure = type: physicochemical
[1] = target: T1, full-length beta-Catenin (Uniprot ID P35222) (Homo sapiens, UniProt P35222); assay: Fluorescence polarization IC50 (beta-catenin / 5FAM-TCF4 10-53 competition); type: binding
T1 construct: 10 nM full-length beta-Catenin (Uniprot ID P35222)
T1 sequence (P35222 1-781): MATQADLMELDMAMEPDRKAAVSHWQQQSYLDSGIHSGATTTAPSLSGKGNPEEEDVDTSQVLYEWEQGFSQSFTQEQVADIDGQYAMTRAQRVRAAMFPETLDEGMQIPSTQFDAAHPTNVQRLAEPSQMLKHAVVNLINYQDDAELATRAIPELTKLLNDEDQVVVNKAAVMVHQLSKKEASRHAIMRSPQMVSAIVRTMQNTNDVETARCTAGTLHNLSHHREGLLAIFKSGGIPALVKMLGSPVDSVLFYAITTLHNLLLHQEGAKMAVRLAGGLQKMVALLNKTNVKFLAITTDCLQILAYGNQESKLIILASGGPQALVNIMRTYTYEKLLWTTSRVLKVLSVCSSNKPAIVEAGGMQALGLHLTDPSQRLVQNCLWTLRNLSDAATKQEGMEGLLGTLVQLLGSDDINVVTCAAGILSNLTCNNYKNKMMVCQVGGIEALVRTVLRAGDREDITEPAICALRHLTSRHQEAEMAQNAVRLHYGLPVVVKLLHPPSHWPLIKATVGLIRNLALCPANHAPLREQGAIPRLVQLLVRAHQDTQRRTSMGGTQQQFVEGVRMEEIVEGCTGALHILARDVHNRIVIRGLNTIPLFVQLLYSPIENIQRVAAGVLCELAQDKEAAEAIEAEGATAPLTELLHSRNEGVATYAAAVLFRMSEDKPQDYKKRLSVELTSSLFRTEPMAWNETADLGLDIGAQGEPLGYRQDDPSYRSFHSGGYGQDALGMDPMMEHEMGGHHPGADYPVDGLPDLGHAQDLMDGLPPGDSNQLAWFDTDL

[2] = FP EC50 (nM), fluorescence polarization, beta-catenin

Compound	Solubility (Solubility in PBS)	chromatographic logD (CHI Log D procedure; pH 7.4, CHI Log D)	IC50 ([1]; read-out: beta-Catenin FP IC50)	CHI Log D (CHI Log D procedure; pH 7.4)	IC50 ([1]; fluorescence polarization, beta-catenin, read-out: FP EC50)	Solubility (Solubility in PBS; Solubility (uM))	chromatographic logD (CHI Log D procedure; pH 7.4)	IC50 [1, 2]
CC(=O)N1CCC[C@]12CC=CCCCC1(CCCC=CCCCOC(=O)N3CC[C@@](C(=O)N[C@@H](Cc4ccsc4)C(=O)N[C@@H](Cc4csc5ccccc45)C(=O)N[C@@H](Cc4c[nH]cn4)C(N)=O)(C3)NC(=O)[C@H](CC(N)=O)NC(=O)[C@H](Cc3ccccc3)NC(=O)[C@H](C)NC(=O)[C@H](C)NC(=O)[C@H](Cc3ccc(O)cc3)NC(=O)[C@H](CC(=O)O)NC1=O)NC(=O)[C@H](CC(C)(C)C)NC(=O)[C@H](CC(=O)O)NC2=O (stereo partly drawn) [I-843, Ac-PL3-Asp-Npg-B5-Asp-Tyr-Ala-Ala-Phe-Asn-PyrS2-3Thi-BztA-His-NH2]	10 µM (≈ 19.8 µg/mL)	2.49	154 nM	–	–	–	–	–
CC(=O)N1CCC[C@]12CC=CCCCC1(CCCC=CCCCOC(=O)N3CC[C@@](C(=O)N[C@@H](Cc4ccsc4)C(=O)N[C@@H](Cc4csc5ccccc45)C(=O)N[C@@H](Cc4c[nH]cn4)C(N)=O)(C3)NC(=O)[C@H](CC(N)=O)NC(=O)[C@H](Cc3ccccc3)NC(=O)[C@H](C)NC(=O)[C@H](C)NC(=O)[C@H]([C@@H](C)O)NC(=O)[C@H](CC(=O)O)NC1=O)NC(=O)[C@H](CC(C)(C)C)NC(=O)[C@H](CC(=O)O)NC2=O (stereo partly drawn) [I-845, Ac-PL3-Asp-Npg-B5-Asp-Thr-Ala-Ala-Phe-Asn-PyrS2-3Thi-BztA-His-NH2]	10 µM (≈ 19.1 µg/mL)	2.42	7 nM	–	–	–	–	–
CC(=O)N1CCC[C@]12CC=CCCCC1(CCCC=CCCCOC(=O)N3CC[C@@](C(=O)N[C@@H](Cc4ccsc4)C(=O)N[C@@H](Cc4csc5ccccc45)C(N)=O)(C3)NC(=O)[C@H](CC(N)=O)NC(=O)[C@H](Cc3ccccc3)NC(=O)[C@H](C)NC(=O)[C@H](C)NC(=O)[C@H]([C@@H](C)O)NC(=O)[C@H](CC(=O)O)NC1=O)NC(=O)[C@H](CC(C)(C)C)NC(=O)[C@H](CC(=O)O)NC2=O (stereo partly drawn) [I-860, Ac-PL3-Asp-Npg-B5-Asp-Thr-Ala-Ala-Phe-Asn-PyrS2-3Thi-BztA-NH2]	10 µM (≈ 17.8 µg/mL)	–	61 nM	2.722	61 nM	–	–	–
CC(=O)N1CCC[C@]12CC=CCCCC1(CCCC=CCCCOC(=O)N3CC[C@@](C(=O)N[C@@H](Cc4ccsc4)C(=O)N[C@@H](Cc4csc5ccccc45)C(N)=O)(C3)NC(=O)[C@H](CC(N)=O)NC(=O)[C@H](Cc3ccccc3)NC(=O)[C@H](C)NC(=O)[C@H](C)NC(=O)[C@H](CCCNC(N)=O)NC(=O)[C@H](CC(=O)O)NC1=O)NC(=O)[C@H](CC(C)(C)C)NC(=O)[C@H](CC(=O)O)NC2=O (stereo partly drawn) [I-861, Ac-PL3-Asp-Npg-B5-Asp-Cit-Ala-Ala-Phe-Asn-PyrS2-3Thi-BztA-NH2]	–	2.55	40 nM	–	–	20 µM (≈ 36.6 µg/mL)	–	–
CC(=O)N1CCC[C@]12CC=CCCCC1(CCCC=CCCCOC(=O)N3CC[C@@](C(=O)N[C@@H](Cc4ccsc4)C(=O)N[C@@H](Cc4csc5ccccc45)C(N)=O)(C3)NC(=O)[C@H](CC(N)=O)NC(=O)[C@H](Cc3ccccc3)NC(=O)[C@H](C)NC(=O)[C@H](C)NC(=O)[C@H](CC(C)C)NC(=O)[C@H](CC(=O)O)NC1=O)NC(=O)[C@H](CC(C)(C)C)NC(=O)[C@H](CC(=O)O)NC2=O (stereo partly drawn) [I-862, Ac-PL3-Asp-Npg-B5-Asp-Leu-Ala-Ala-Phe-Asn-PyrS2-3Thi-BztA-NH2]	10 µM (≈ 17.9 µg/mL)	2.85	123 nM	–	–	–	–	–
CC(=O)N1CCC[C@]12CC=CCCCC1(CCCC=CCCCOC(=O)N3CC[C@@](C(=O)N[C@@H](Cc4ccsc4)C(=O)N[C@@H](Cc4csc5ccccc45)C(=O)N[C@@H](CCCCNC(=O)CN=[N+]=[N-])C(N)=O)(C3)NC(=O)[C@H](CC(N)=O)NC(=O)[C@H](Cc3ccccc3)NC(=O)[C@H](C)NC(=O)[C@H](C)NC(=O)[C@H](CC(=O)O)NC(=O)[C@H](CC(=O)O)NC1=O)NC(=O)[C@H](CC(C)(C)C)NC(=O)[C@H](CC(=O)O)NC2=O (stereo partly drawn) [I-878, Ac-PL3-Asp-Npg-B5-Asp-Asp-Ala-Ala-Phe-Asn-PyrS2-3Thi-BztA-[AzAc]Lys-NH2]	46 µM (≈ 92.1 µg/mL)	–	–	–	–	–	2.09	6 nM
CC(=O)N1CCC[C@]12CC=CCCCC1(CCCC=CCCCOC(=O)N3CC[C@@](C(=O)N[C@@H](Cc4ccsc4)C(=O)N[C@@H](Cc4csc5ccccc45)C(=O)N[C@@H](CCC(N)=O)C(N)=O)(C3)NC(=O)[C@H](CC(N)=O)NC(=O)[C@H](Cc3ccccc3)NC(=O)[C@H](C)NC(=O)[C@H](CCCCNC(=O)CN=[N+]=[N-])NC(=O)[C@H](CC(=O)O)NC(=O)[C@H](CC(=O)O)NC1=O)NC(=O)[C@H](CC(C)(C)C)NC(=O)[C@H](CC(=O)O)NC2=O (stereo partly drawn) [I-879, Ac-PL3-Asp-Npg-B5-Asp-Asp-[AzAc]Lys-Ala-Phe-Asn-PyrS2-3Thi-BztA-Gln-NH2]	45 µM (≈ 92.6 µg/mL)	–	–	–	–	–	2	6 nM
CC(=O)N1CCC[C@]12CC=CCCCC1(CCCC=CCCCOC(=O)N3CC[C@@](C(=O)N[C@@H](Cc4ccsc4)C(=O)N[C@@H](Cc4csc5ccccc45)C(=O)N[C@@H](CCC(N)=O)C(N)=O)(C3)NC(=O)[C@H](CC(N)=O)NC(=O)[C@H](Cc3ccccc3)NC(=O)[C@H](C)NC(=O)[C@H](C)NC(=O)[C@H](CC(=O)O)NC(=O)[C@H](CC(=O)O)NC1=O)NC(=O)[C@H](CCCCNC(=O)CN=[N+]=[N-])NC(=O)[C@H](CC(=O)O)NC2=O (stereo partly drawn) [I-880, Ac-PL3-Asp-[AzAc]Lys-B5-Asp-Asp-Ala-Ala-Phe-Asn-PyrS2-3Thi-BztA-Gln-NH2]	42 µM (≈ 84.1 µg/mL)	–	–	–	–	–	1.72	6 nM
CC(=O)N1CCC[C@]12CC=CCCCC1(CCCC=CCCCOC(=O)N3CC[C@@](C(=O)N[C@@H](Cc4ccsc4)C(=O)N[C@@H](Cc4csc5ccccc45)C(=O)N[C@@H](CCC(N)=O)C(N)=O)(C3)NC(=O)[C@H](CC(N)=O)NC(=O)[C@H](Cc3ccccc3)NC(=O)[C@H](CCCCNC(=O)CCc3cc(C(F)(F)F)cc(C(F)(F)F)c3)NC(=O)[C@H](C)NC(=O)[C@H](CC(=O)O)NC(=O)[C@H](CC(=O)O)NC1=O)NC(=O)[C@H](CC(C)(C)C)NC(=O)[C@H](CC(=O)O)NC2=O (stereo partly drawn) [I-883, Ac-PL3-Asp-Npg-B5-Asp-Asp-Ala-[35CF3PhPr]Lys-Phe-Asn-PyrS2-3Thi-BztA-Gln-NH2]	–	2.4	53 nM	–	–	42 µM (≈ 94.2 µg/mL)	–	–
CC(=O)N1CCC[C@]12CC=CCCCC1(CCCC=CCCCOC(=O)N3CC[C@@](C(=O)N[C@@H](Cc4ccsc4)C(=O)N[C@@H](Cc4csc5ccccc45)C(=O)N[C@@H](CCC(N)=O)C(N)=O)(C3)NC(=O)[C@H](CC(N)=O)NC(=O)[C@H](Cc3ccccc3)NC(=O)[C@H](CCCCNC(=O)C3CCN(C4CCN(C)CC4)CC3)NC(=O)[C@H](C)NC(=O)[C@H](CC(=O)O)NC(=O)[C@H](CC(=O)O)NC1=O)NC(=O)[C@H](CC(C)(C)C)NC(=O)[C@H](CC(=O)O)NC2=O (stereo partly drawn) [I-888, Ac-PL3-Asp-Npg-B5-Asp-Asp-Ala-[MeBipipAc]Lys-Phe-Asn-PyrS2-3Thi-BztA-Gln-NH2]	–	1.39	13 nM	–	–	21 µM (≈ 45.9 µg/mL)	–	–
CC(=O)N1CCC[C@]12CC=CCCCC1(CCCC=CCCCOC(=O)N3CC[C@@](C(=O)N[C@@H](Cc4ccsc4)C(=O)N[C@@H](Cc4csc5ccccc45)C(=O)N[C@@H](CCC(N)=O)C(N)=O)(C3)NC(=O)[C@H](CC(N)=O)NC(=O)[C@H](Cc3ccccc3)NC(=O)[C@H](CCCCNC(=O)c3ccc(CN(C)C)cc3)NC(=O)[C@H](C)NC(=O)[C@H](CC(=O)O)NC(=O)[C@H](CC(=O)O)NC1=O)NC(=O)[C@H](CC(C)(C)C)NC(=O)[C@H](CC(=O)O)NC2=O (stereo partly drawn) [I-891, Ac-PL3-Asp-Npg-B5-Asp-Asp-Ala-[Me2NCBz]Lys-Phe-Asn-PyrS2-3Thi-BztA-Gln-NH2]	–	1.53	13 nM	–	–	42 µM (≈ 89.7 µg/mL)	–	–
CC(=O)N1CCC[C@]12CC=CCCCC1(CCCC=CCCCOC(=O)N3CC[C@@](C(=O)N[C@@H](Cc4ccsc4)C(=O)N[C@@H](Cc4csc5ccccc45)C(=O)N[C@@H](CCC(N)=O)C(N)=O)(C3)NC(=O)[C@H](CC(N)=O)NC(=O)[C@H](Cc3ccccc3)NC(=O)[C@H](CCCCNC(=O)CCC34CC5CC(CC(C5)C3)C4)NC(=O)[C@H](C)NC(=O)[C@H](CC(=O)O)NC(=O)[C@H](CC(=O)O)NC1=O)NC(=O)[C@H](CC(C)(C)C)NC(=O)[C@H](CC(=O)O)NC2=O (stereo partly drawn) [I-901, Ac-PL3-Asp-Npg-B5-Asp-Asp-Ala-[AdamantPro]Lys-Phe-Asn-PyrS2-3Thi-BztA-Gln-NH2]	–	2.49	38 nM	–	–	40 µM (≈ 86.6 µg/mL)	–	–
